These results are taken from patent US12479830B2, “Homopiperazinyl and homopiperidinyl quinazolin-4(3H)-one derivatives having multimodal activity against pain” (ESTEVE PHARMACEUTICALS, S.A., priority 2019, dated 2025).

The target of one test is T1, Human σ1 receptor (Homo sapiens, UniProt Q99720).
T1 construct: expressed in transfected cells; host or cells: HEK-293
The test can be described thus: Human σ1 receptor radioligand assay ([3H](+)-pentazocine binding). Conditions: binding to the σ1 receptor, expressed as Ki class; + also covers inhibition between 1% and 50%. How it is done:
Human σ1 Receptor Radioligand Assay
Transfected HEK-293 membranes (7 μg) were incubated with 5 nM of [^3H](+)-pentazocine in assay buffer containing Tris-HCl 50 mM at pH 8. NBS (non-specific binding) was measured by adding 10 μM haloperidol. The binding of the test compound was measured at either one concentration (% inhibition at 1 or 10 μM) or five different concentrations to determine affinity values (Ki). Plates were incubated at 37° C. for 120 minutes. After the incubation period, the reaction mix was then transferred to MultiScreen HTS, FC plates (Millipore), filtered and plates were washed 3 times with ice-cold 10 mM Tris-HCL (pH7.4). Filters were dried and counted at approximately 40% efficiency in a MicroBeta scintillation counter (Perkin-Elmer) using EcoScint liquid scintillation cocktail.

The target in test [1] is Human α2δ-1 subunit of Cav2.2 calcium channel (Homo sapiens, UniProt P54289). In words: Human α2δ-1 subunit of Cav2.2 calcium channel assay ([3H]-gabapentin binding). Conditions: binding to the α2δ-1 subunit of voltage-gated calcium channels, expressed as Ki class; + also covers inhibition between 1% and 50%. Here is the method: Human α2δ-1 Subunit of Cav2.2 Calcium Channel Assay
Human α2δ-1 enriched membranes (2.5 μg) were incubated with 15 nM of radiolabeled [^3H]-Gabapentin in assay buffer containing Hepes-KOH 10 mM. pH 7.4. NSB (non specific binding) was measured by adding 10 μM pregabalin. The binding of the test compound was measured at either one concentration (% inhibition at 1 or 10 μM) or five different concentrations to determine affinity values (Ki). After 60 min incubation at 27° C., binding reaction was terminated by filtering through Multiscreen GF/C (Millipore) presoaked in 0.5% polyethyleneimine in Vacuum Manifold Station, followed by 3 washes with ice-cold filtration buffer containing 50 mM Tris-HCl, pH 7.4. Filter plates were dried at 60° C. for 1 h and 30 μL of scintillation cocktail were added to each well before radioactivity reading. Readings were performed in a Trilux 1450 Microbeta radioactive counter (Perkin Elmer).

pKi: −log10 of the molar value. Where only a bound is given, the exact number is not on record here.

Chain of Human α2δ-1 subunit of Cav2.2 calcium channel (P54289 25-1103): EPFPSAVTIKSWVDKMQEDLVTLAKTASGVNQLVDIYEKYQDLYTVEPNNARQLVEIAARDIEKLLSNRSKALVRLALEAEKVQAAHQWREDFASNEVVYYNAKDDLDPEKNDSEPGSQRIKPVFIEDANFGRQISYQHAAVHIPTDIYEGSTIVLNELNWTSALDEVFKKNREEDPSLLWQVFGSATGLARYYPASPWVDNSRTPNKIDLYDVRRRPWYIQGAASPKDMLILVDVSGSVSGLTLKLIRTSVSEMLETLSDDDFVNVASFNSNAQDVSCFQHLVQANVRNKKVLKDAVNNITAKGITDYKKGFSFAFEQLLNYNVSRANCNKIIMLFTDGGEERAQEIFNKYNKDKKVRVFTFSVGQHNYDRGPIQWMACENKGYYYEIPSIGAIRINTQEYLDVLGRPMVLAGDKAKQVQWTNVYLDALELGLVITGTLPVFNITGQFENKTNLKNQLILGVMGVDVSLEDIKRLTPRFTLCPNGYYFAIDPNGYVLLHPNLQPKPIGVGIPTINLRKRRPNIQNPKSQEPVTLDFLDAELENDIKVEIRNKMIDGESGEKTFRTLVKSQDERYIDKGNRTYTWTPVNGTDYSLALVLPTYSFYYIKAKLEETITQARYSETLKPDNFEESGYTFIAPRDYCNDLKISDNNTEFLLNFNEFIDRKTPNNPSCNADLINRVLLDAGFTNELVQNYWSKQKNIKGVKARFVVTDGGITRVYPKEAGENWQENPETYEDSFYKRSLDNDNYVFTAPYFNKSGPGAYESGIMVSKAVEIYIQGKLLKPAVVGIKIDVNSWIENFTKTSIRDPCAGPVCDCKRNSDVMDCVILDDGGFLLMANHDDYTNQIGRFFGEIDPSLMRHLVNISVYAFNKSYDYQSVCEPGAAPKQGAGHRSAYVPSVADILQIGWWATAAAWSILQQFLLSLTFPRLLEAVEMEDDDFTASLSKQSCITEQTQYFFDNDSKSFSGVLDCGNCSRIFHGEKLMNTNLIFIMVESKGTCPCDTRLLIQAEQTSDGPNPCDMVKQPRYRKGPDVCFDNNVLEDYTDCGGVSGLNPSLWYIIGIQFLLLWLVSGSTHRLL
T1 sequence (Q99720 whole entry): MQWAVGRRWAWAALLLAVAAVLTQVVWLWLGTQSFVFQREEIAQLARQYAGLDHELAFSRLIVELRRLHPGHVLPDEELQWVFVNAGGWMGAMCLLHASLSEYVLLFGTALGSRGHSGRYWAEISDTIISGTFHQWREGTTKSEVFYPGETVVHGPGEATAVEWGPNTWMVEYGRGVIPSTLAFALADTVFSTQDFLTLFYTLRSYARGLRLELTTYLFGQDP

For `CCC[C@@H](c1nc2ccc(Cl)cc2c(=O)n1C)N1CCCN[C@@H](C)C1` [Example 149, 6-chloro-3-methyl-2-((S)-1-((S)-3-methyl-1,4-diazepan-1-yl)butyl)quinazolin-4(3H)-one], the pKi on Human σ1 receptor is above 6.30; in test [1] it was below 5.30.
Consider `CCCC(c1nc2ccc(F)cc2c(=O)n1CC(C)C)N1CCCN(CC)CC1` (stereo not shown) [Example 50, 2-(1-(4-ethyl-1,4-diazepan-1-yl)butyl)-6-fluoro-3-isobutylquinazolin-4(3H)-one], for which the pKi (on Human σ1 receptor; in test [1]) was above 6.30 each time.
With `CCC[C@H](c1nc2cc(F)c(Br)cc2c(=O)n1CC)N1CCNC[C@H](C)C1` [Example 96, 6-Bromo-3-ethyl-7-fluoro-2-((R)-1-((S)-6-methyl-1,4-diazepan-1-yl)butyl)quinazolin-4(3H)-one], the pKi was 6.00 to 6.30 on Human σ1 receptor and above 6.30 in test [1].
In the case of `CCC[C@@H](c1nc2ccc(Cl)cc2c(=O)n1CCC)N1CCCN(C)CC1` [Example 160, (S)-6-chloro-2-(1-(4-methyl-1,4-diazepan-1-yl)butyl)-3-propylquinazolin-4(3H)-one], the pKi is below 6.00 at Human σ1 receptor and below 5.30 in test [1].
In the same order, the values of `CCC[C@@H](c1nc2ccncc2c(=O)n1CC)N1CCNC[C@@H](C)C1` [Example 167, 3-ethyl-2-((S)-1-((R)-6-methyl-1,4-diazepan-1-yl)butyl)pyrido[4,3-d]pyrimidin-4(3H)-one] are below 6.00 and 5.30 to 6.30.
For the compound `CCC[C@H](c1nc2ccc(Br)cc2c(=O)n1CC)N1CCN2CCC1CC2` [Example 66, (R)-2-(1-(1,4-diazabicyclo[3.2.2]nonan-4-yl)butyl)-6-bromo-3-ethylquinazolin-4(3H)-one], the figures for the pKi (at Human σ1 receptor; in test [1]) were below 6.00 and below 5.30, respectively.
Turning to `CCC[C@@H](c1nc2ccc(Br)cc2c(=O)n1CC)N1CCN(C)C[C@@H](CO)C1` [Example 124, 6-bromo-3-ethyl-2-((S)-1-((R)-6-(hydroxymethyl)-4-methyl-1,4-diazepan-1-yl)butyl)quinazolin-4(3H)-one], the pKi was below 6.00 on Human σ1 receptor and 5.30 to 6.30 in test [1].
On to `CCC[C@H](c1nc2ccc(F)cc2c(=O)n1CC(C)C)N1CCCN(CC)CC1` [Example 215, (R)-2-(1-(4-ethyl-1,4-diazepan-1-yl)butyl)-6-fluoro-3-isobutylquinazolin-4(3H)-one], for which the pKi (on Human σ1 receptor; in test [1]) was above 6.30 throughout.
As for `CCCC(c1nc2c(F)cc(Br)cc2c(=O)n1CC)N1CCCN(C)CC1` (stereo not shown) [Example 40, 6-bromo-3-ethyl-8-fluoro-2-(1-(4-methyl-1,4-diazepan-1-yl)butyl)quinazolin-4(3H)-one], the pKi on Human σ1 receptor is 6.00 to 6.30; in test [1], above 6.30.
In the same order, the values of `CCC[C@@H](c1nc2ccc(Br)cc2c(=O)n1CCC)N1CCNC[C@@H](C)C1` [Example 70, 6-bromo-2-((S)-1-((R)-6-methyl-1,4-diazepan-1-yl)butyl)-3-propylquinazolin-4(3H)-one] are below 6.00 and below 5.30.
Regarding `CCC[C@@H](c1nc2ccc(Br)cc2c(=O)n1CC)N1CCCN(C)CC1` [Example 152, (S)-6-bromo-3-ethyl-2-(1-(4-methyl-1,4-diazepan-1-yl)butyl)quinazolin-4(3H)-one], the pKi on Human σ1 receptor is 6.00 to 6.30; in test [1], below 5.30.
In the same order, the values of `CCCC(c1nc2cc(Br)ccc2c(=O)n1CC)N1CCCNCC1` (stereo not shown) [Example 4, 2-(1-(1,4-diazepan-1-yl)butyl)-7-bromo-3-ethylquinazolin-4(3H)-one] are below 6.00 and above 6.30.
Regarding `CCC[C@H](c1nc2ccc(F)cc2c(=O)n1CCC(C)C)N1CCCN(CC)CC1` [Example 221, (R)-2-(1-(4-ethyl-1,4-diazepan-1-yl)butyl)-6-fluoro-3-isopentylquinazolin-4(3H)-one], the negative-log Ki (pKi) was above 6.30 at Human σ1 receptor and below 5.30 in test [1].
On the same counts, the results for `CCC[C@H](c1nc2cc(F)c(Cl)cc2c(=O)n1CC)N1CCNC[C@H](C)C1` [Example 118, 6-Chloro-3-ethyl-7-fluoro-2-((R)-1-((S)-6-methyl-1,4-diazepan-1-yl)butyl)quinazolin-4(3H)-one] are 6.00 to 6.30 and above 6.30.
On the same counts, the results for `CC[C@H]1CCn2c(nc3ccc(Br)cc3c2=O)[C@@H]1N1CCCN(C)CC1` [Example 270, (6R,7S)-2-bromo-7-ethyl-6-(4-methyl-1,4-diazepan-1-yl)-8,9-dihydro-6H-pyrido[2,1-b]quinazolin-11(7H)-one] are 6.00 to 6.30 and below 5.30.
On the same counts, the results for `CCC[C@H](c1nc2ccc(F)cc2c(=O)n1CCC(C)C)N1CCCN(C)CC1` [Example 226, (R)-6-fluoro-3-isopentyl-2-(1-(4-methyl-1,4-diazepan-1-yl)butyl)quinazolin-4(3H)-one] are above 6.30 and below 5.30.
`CCC[C@H](c1nc2ncc(Br)cc2c(=O)n1CC)N1CCNC[C@H](C)C1` [Example 197, 6-bormo-3-ethyl-2-((R)-1-((S)-6-methyl-1,4-diazepan-1-yl)butyl)pyrido[2,3-d]pyrimidin-4(3H)-one]: the pKi is below 6.00 on Human σ1 receptor and above 6.30 in test [1].
In the same order, the values of `CCC[C@H](c1nc2ncc(Br)cc2c(=O)n1CC)N1CCN(C)C[C@@H](C)C1` [Example 186, 6-bromo-2-((R)-1-((R)-4,6-dimethyl-1,4-diazepan-1-yl)butyl)-3-ethylpyrido[2,3-d]pyrimidin-4(3H)-one] are below 6.00 and above 6.30.
In the same order, the values of `CCC[C@H](c1nc2ccncc2c(=O)n1CC)N1CCN(C)C[C@H](C)C1` [Example 169, 2-((R)-1-((S)-4,6-dimethyl-1,4-diazepan-1-yl)butyl)-3-ethylpyrido[4,3-d]pyrimidin-4(3H)-one] are below 6.00 and above 6.30.
On the same counts, the results for `CCC[C@H](c1nc2ccc(C(F)(F)F)cc2c(=O)n1CC)N1CCN[C@H](C)CC1` [Example 258, 3-ethyl-2-((R)-1-((R)-5-methyl-1,4-diazepan-1-yl)butyl)-6-(trifluoromethyl)quinazolin-4(3H)-one] are above 6.30 and 5.30 to 6.30.
As for `CCCC(c1nc2ccc(Br)cc2c(=O)n1C)N1CCCN(CC)CC1` (stereo not shown) [Example 85, 6-bromo-2-(1-(4-ethyl-1,4-diazepan-1-yl)butyl)-3-methylquinazolin-4(3H)-one], the pKi on Human σ1 receptor was above 6.30; in test [1], below 5.30.
With `CCCC(c1nc2ccc(CC)cc2c(=O)n1CC)N1CCCN(C)CC1` (stereo not shown) [Example 205, 3,6-diethyl-2-(1-(4-methyl-1,4-diazepan-1-yl)butyl)quinazolin-4(3H)-one], the pKi at Human σ1 receptor is below 6.00; in test [1] it was above 6.30.
Consider `CCC[C@H](c1nc2ccc(Cl)cc2c(=O)n1CC)N1CCN(C)C[C@H](C)C1` [Example 75, 6-chloro-2-((R)-1-((S)-4,6-dimethyl-1,4-diazepan-1-yl)butyl)-3-ethylquinazolin-4(3H)-one], for which the pKi at Human σ1 receptor was 6.00 to 6.30; in test [1], above 6.30.
On the same counts, the results for `CCC[C@H](c1nc2ccc(Br)cc2c(=O)n1CC)N1CCN[C@@H](C)CC1` [Example 93, 6-bromo-3-ethyl-2-((R)-1-((S)-5-methyl-1,4-diazepan-1-yl)butyl)quinazolin-4(3H)-one] are 6.00 to 6.30 and above 6.30.
On the same counts, the results for `CCCC(c1nc2cc(Br)c(F)cc2c(=O)n1CC)N1CCCN(CC)CC1` (stereo not shown) [Example 63, 7-bromo-3-ethyl-2-(1-(4-ethyl-1,4-diazepan-1-yl)butyl)-6-fluoroquinazolin-4(3H)-one] are above 6.30 and above 6.30.
For the compound `CCCC(c1nc2ncccc2c(=O)n1CC)N1CCCNCC1` (stereo not shown) [Example 179, 2-(1-(1,4-diazepan-1-yl)butyl)-3-ethylpyrido[2,3-d]pyrimidin-4(3H)-one], the pKi on Human σ1 receptor is below 6.00; in test [1] it was 5.30 to 6.30.
As for `CCC[C@@H](c1nc2ccc(Br)cc2c(=O)n1CC)N1CCNC[C@H](O)C1` [Example 115, 6-bromo-3-ethyl-2-((S)-1-((S)-6-hydroxy-1,4-diazepan-1-yl)butyl)quinazolin-4(3H)-one], the pKi was below 6.00 on Human σ1 receptor and below 5.30 in test [1].
On the same counts, the results for `CCCC(c1nc2c(F)cc(Br)cc2c(=O)n1CC)N1CCCNCC1` (stereo not shown) [Example 55, 2-(1-(1,4-diazepan-1-yl)butyl)-6-bromo-3-ethyl-8-fluoroquinazolin-4(3H)-one] are below 6.00 and 5.30 to 6.30.
Consider `CCCC(c1nc2cc(C)c(Br)cc2c(=O)n1CC)N1CCCN(C)CC1` (stereo not shown) [Example 39, 6-bromo-3-ethyl-7-methyl-2-(1-(4-methyl-1,4-diazepan-1-yl)butyl)quinazolin-4(3H)-one], for which the figures for the pKi (on Human σ1 receptor; in test [1]) were 6.00 to 6.30 and above 6.30, respectively.
